Measurements: publication PMC5218480 (PLoS ONE, 2017)

Test system: MV-4-11 cells
Experiment: Gene expression microarray analysis (Affymetrix PrimeView) and GSEA
Type: cell-based, human
Parameters: RFU PODN (11730768_x_at) / Fold change /veh PODN (11730768_x_at) / RFU LINC00158 (11744669_a_at) / Fold change /veh LINC00158 (11744669_a_at) / RFU DUSP10 (11751237_a_at) / Fold change /veh DUSP10 (11751237_a_at) / RFU ID3 (11757404_x_at) / Fold change /veh ID3 (11757404_x_at) / RFU PLEKHG5 (11737974_s_at) / Fold change /veh PLEKHG5 (11737974_s_at) / RFU LRRC4B (11730491_at) / Fold change /veh LRRC4B (11730491_at) / RFU GIMAP4 (11747438_a_at) / Fold change /veh GIMAP4 (11747438_a_at) / RFU KRT8 (11758183_x_at) / Fold change /veh KRT8 (11758183_x_at) / RFU CNN1 (11734310_a_at) / Fold change /veh CNN1 (11734310_a_at) / RFU VPS37D (11726825_at) / Fold change /veh VPS37D (11726825_at) / RFU C10orf10 (11716522_x_at) / Fold change /veh C10orf10 (11716522_x_at) / RFU KIR2DL2 /// KIR2DL4 /// KIR2DL5A /// KIR2DL5B /// KIR2DS1 /// KIR2DS2 /// KIR2DS3 /// KIR2DS4 /// KIR3DL3 /// KIR3DL3 /// KIR3DS1 (11738374_at) / Fold change /veh KIR2DL2 /// KIR2DL4 /// KIR2DL5A /// KIR2DL5B /// KIR2DS1 /// KIR2DS2 /// KIR2DS3 /// KIR2DS4 /// KIR3DL3 /// KIR3DL3 /// KIR3DS1 (11738374_at) / RFU C1QL1 (11718748_at) / Fold change /veh C1QL1 (11718748_at) / RFU TMPRSS4 (11747572_a_at) / Fold change /veh TMPRSS4 (11747572_a_at) / RFU HAMP (11756126_x_at) / Fold change /veh HAMP (11756126_x_at) / RFU RNFT2 (11725882_a_at) / Fold change /veh RNFT2 (11725882_a_at) / RFU NR4A2 (11747474_a_at) / Fold change /veh NR4A2 (11747474_a_at) / RFU ABCC12 (11746883_a_at) / Fold change /veh ABCC12 (11746883_a_at) / RFU TMEM136 (11760407_x_at) / Fold change /veh TMEM136 (11760407_x_at) / RFU CLDN22 /// WWC2 (11732394_at) / Fold change /veh CLDN22 /// WWC2 (11732394_at) / RFU HLA-DPB1 (11760878_x_at) / Fold change /veh HLA-DPB1 (11760878_x_at) / RFU SPINT1 (11716480_a_at) / Fold change /veh SPINT1 (11716480_a_at) / RFU GAP43 (11754022_s_at) / Fold change /veh GAP43 (11754022_s_at) / RFU A4GNT (11735810_at) / Fold change /veh A4GNT (11735810_at) / RFU PRB3 (11715151_x_at) / Fold change /veh PRB3 (11715151_x_at) / RFU TUBB4B (11761932_at) / Fold change /veh TUBB4B (11761932_at) / RFU CAPN14 (11732068_a_at) / Fold change /veh CAPN14 (11732068_a_at) / RFU TMCC2 (11721928_a_at) / Fold change /veh TMCC2 (11721928_a_at) / RFU IRGQ (11745062_a_at) / Fold change /veh IRGQ (11745062_a_at) / RFU FAM174B (11720279_a_at) / Fold change /veh FAM174B (11720279_a_at) / RFU TMPRSS4 (11748680_a_at) / Fold change /veh TMPRSS4 (11748680_a_at) / RFU FAM212B (11763350_a_at) / Fold change /veh FAM212B (11763350_a_at) / RFU PLEKHG5 (11743358_a_at) / Fold change /veh PLEKHG5 (11743358_a_at) / RFU ZSCAN30 (11745921_a_at) / Fold change /veh ZSCAN30 (11745921_a_at) / RFU CMKLR1 (11741424_a_at) / Fold change /veh CMKLR1 (11741424_a_at) / RFU LOC101060620 /// MAPK8IP1 (11723275_at) / Fold change /veh LOC101060620 /// MAPK8IP1 (11723275_at) / RFU SPTSSB (11747773_x_at) / Fold change /veh SPTSSB (11747773_x_at) / RFU PRSS12 (11739890_at) / Fold change /veh PRSS12 (11739890_at) / RFU BIN1 (11741810_x_at) / Fold change /veh BIN1 (11741810_x_at) / RFU WNT11 (11732464_a_at) / Fold change /veh WNT11 (11732464_a_at) / RFU C10orf10 (11716521_a_at) / Fold change /veh C10orf10 (11716521_a_at) / RFU C5orf56 (11738089_at) / Fold change /veh C5orf56 (11738089_at) / RFU CYB561 (11721691_x_at) / Fold change /veh CYB561 (11721691_x_at) / RFU ANKRD19P (11752326_a_at) / Fold change /veh ANKRD19P (11752326_a_at) / RFU OR2T12 /// OR2T33 /// OR2T8 (11738714_s_at) / Fold change /veh OR2T12 /// OR2T33 /// OR2T8 (11738714_s_at) / RFU VCAN (11748164_a_at) / Fold change /veh VCAN (11748164_a_at) / RFU JSRP1 (11732532_at) / Fold change /veh JSRP1 (11732532_at) / RFU KRTAP10-11 (11738290_x_at) / Fold change /veh KRTAP10-11 (11738290_x_at) / RFU MYO3A (11730013_a_at) / Fold change /veh MYO3A (11730013_a_at) / RFU EBF3 (11725865_a_at) / Fold change /veh EBF3 (11725865_a_at) / RFU CAMK2N1 (11719241_x_at) / Fold change /veh CAMK2N1 (11719241_x_at) / RFU C5orf56 (11738088_a_at) / Fold change /veh C5orf56 (11738088_a_at) / RFU OLFML3 (11715873_a_at) / Fold change /veh OLFML3 (11715873_a_at) / RFU LOC100653217 /// NTM (11731650_a_at) / Fold change /veh LOC100653217 /// NTM (11731650_a_at) / RFU MAPK11 (11762145_a_at) / Fold change /veh MAPK11 (11762145_a_at) / RFU FIZ1 (11724087_x_at) / Fold change /veh FIZ1 (11724087_x_at) / RFU OASL (11726364_x_at) / Fold change /veh OASL (11726364_x_at) / RFU SOX15 (11748057_x_at) / Fold change /veh SOX15 (11748057_x_at) / RFU CD79A (11719716_a_at) / Fold change /veh CD79A (11719716_a_at) / RFU HIST1H1D (11736915_at) / Fold change /veh HIST1H1D (11736915_at) / RFU CASKIN2 (11723855_a_at) / Fold change /veh CASKIN2 (11723855_a_at) / RFU LOC730098 (11760151_x_at) / Fold change /veh LOC730098 (11760151_x_at) / RFU OR4N2 (11742367_at) / Fold change /veh OR4N2 (11742367_at) / RFU PRRT2 (11749266_a_at) / Fold change /veh PRRT2 (11749266_a_at) / RFU SNX32 (11753110_a_at) / Fold change /veh SNX32 (11753110_a_at) / RFU CDHR5 (11726645_a_at) / Fold change /veh CDHR5 (11726645_a_at) / RFU RCAN1 (11760418_a_at) / Fold change /veh RCAN1 (11760418_a_at) / RFU FAM167A (11723789_a_at) / Fold change /veh FAM167A (11723789_a_at) / RFU FAM26E (11764081_at) / Fold change /veh FAM26E (11764081_at) / RFU ISYNA1 (11749810_s_at) / Fold change /veh ISYNA1 (11749810_s_at) / RFU ACY1 (11761880_at) / Fold change /veh ACY1 (11761880_at) / RFU 11764098_at / Fold change /veh 11764098_at / RFU SAMD14 (11745864_x_at) / Fold change /veh SAMD14 (11745864_x_at) / RFU NPB (11741838_a_at) / Fold change /veh NPB (11741838_a_at) / RFU TMPRSS6 (11731388_a_at) / Fold change /veh TMPRSS6 (11731388_a_at) / RFU KRTAP10-2 (11738614_at) / Fold change /veh KRTAP10-2 (11738614_at) / RFU ARHGAP8 /// PRR5-ARHGAP8 (11727945_x_at) / Fold change /veh ARHGAP8 /// PRR5-ARHGAP8 (11727945_x_at) / RFU KRTAP5-7 /// NADSYN1 (11734609_at) / Fold change /veh KRTAP5-7 /// NADSYN1 (11734609_at) / RFU RASL12 (11751679_a_at) / Fold change /veh RASL12 (11751679_a_at) / RFU CDKN2B (11736163_a_at) / Fold change /veh CDKN2B (11736163_a_at) / RFU PRF1 (11729649_at) / Fold change /veh PRF1 (11729649_at) / RFU, ZNF638 /// ZNF638-IT1 / Fold change vs veh, ZNF638 /// ZNF638-IT1 / RFU, PANK3 / Fold change vs veh, PANK3 / RFU, SH3YL1 / Fold change vs veh, SH3YL1 / RFU, ZEB2 / Fold change vs veh, ZEB2 / RFU, NRIP1 / Fold change vs veh, NRIP1 / RFU, PTTG1IP / Fold change vs veh, PTTG1IP / RFU, CAPN2 / Fold change vs veh, CAPN2 / RFU, MED14 / Fold change vs veh, MED14 / RFU, SNORA58 / Fold change vs veh, SNORA58 / RFU, C1orf63 / Fold change vs veh, C1orf63 / RFU, LRRFIP1 / Fold change vs veh, LRRFIP1 / RFU, NDUFAF7 / Fold change vs veh, NDUFAF7 / RFU, SLC12A2 / Fold change vs veh, SLC12A2 / RFU, IBTK / Fold change vs veh, IBTK / RFU, ESF1 / Fold change vs veh, ESF1 / Fold change vs veh, TMEM50B / RFU, TAOK1 / Fold change vs veh, TAOK1 / RFU, ACBD3 / Fold change vs veh, ACBD3 / RFU, TMA16 / Fold change vs veh, TMA16 / RFU, RWDD3 / Fold change vs veh, RWDD3 / RFU, BCAT1 / Fold change vs veh, BCAT1 / RFU, EDEM3 / Fold change vs veh, EDEM3 / RFU, TMEM33 / Fold change vs veh, TMEM33 / RFU, WDR75 / Fold change vs veh, WDR75 / RFU, AHCTF1 / Fold change vs veh, AHCTF1 / RFU, TFRC / Fold change vs veh, TFRC / RFU, ZDHHC17 / Fold change vs veh, ZDHHC17 / RFU, NOM1 / Fold change vs veh, NOM1 / RFU, ARL8B / Fold change vs veh, ARL8B / RFU, ZBTB11 / Fold change vs veh, ZBTB11 / RFU, TAMM41 / Fold change vs veh, TAMM41 / RFU, KIAA1704 /// LOC100996395 / Fold change vs veh, KIAA1704 /// LOC100996395 / RFU, ING1 / Fold change vs veh, ING1 / RFU, TRMT61B / Fold change vs veh, TRMT61B / RFU, FUBP3 / Fold change vs veh, FUBP3 / RFU, TP53 / Fold change vs veh, TP53 / RFU, TNKS2 / Fold change vs veh, TNKS2 / RFU, ZFP14 / Fold change vs veh, ZFP14 / RFU, ACTR2 / Fold change vs veh, ACTR2 / RFU, PPP3R1 / Fold change vs veh, PPP3R1 / RFU, PIK3R1 / Fold change vs veh, PIK3R1 / RFU, HNRNPA1 / Fold change vs veh, HNRNPA1 / RFU, RNF170 / Fold change vs veh, RNF170 / RFU, ZNF28 / Fold change vs veh, ZNF28 / RFU, RNGTT / Fold change vs veh, RNGTT / RFU, OGT / Fold change vs veh, OGT / RFU, BRD1 / Fold change vs veh, BRD1 / RFU, MARS / Fold change vs veh, MARS / RFU, ZNF655 / Fold change vs veh, ZNF655 / RFU, FAHD1 / Fold change vs veh, FAHD1 / RFU, BDP1 / Fold change vs veh, BDP1 / RFU, LRRCC1 / Fold change vs veh, LRRCC1 / RFU, ARID1A / Fold change vs veh, ARID1A / RFU, ZNF146 / Fold change vs veh, ZNF146 / RFU, ZNF330 / Fold change vs veh, ZNF330 / RFU, GPN3 / Fold change vs veh, GPN3 / RFU, C9orf123 / Fold change vs veh, C9orf123 / RFU, N4BP2L2 / Fold change vs veh, N4BP2L2 / RFU, ARFIP1 / Fold change vs veh, ARFIP1 / RFU, FAM179B / Fold change vs veh, FAM179B / RFU, BCL10 / Fold change vs veh, BCL10 / RFU, UHRF1BP1L / Fold change vs veh, UHRF1BP1L / RFU, BET1 / Fold change vs veh, BET1 / RFU, CNOT2 / Fold change vs veh, CNOT2 / RFU, ZNF268 / Fold change vs veh, ZNF268 / Fold change vs veh, ZNF507 / RFU, DGCR2 / Fold change vs veh, DGCR2 / RFU, WDSUB1 / Fold change vs veh, WDSUB1 / Fold change vs veh, HSP90B1 /// MIR3652 / RFU, ADSS / Fold change vs veh, ADSS / RFU, GK / Fold change vs veh, GK / RFU, ZNF148 / Fold change vs veh, ZNF148 / RFU, TAF9 / Fold change vs veh, TAF9 / RFU, SLC1A5 / Fold change vs veh, SLC1A5 / RFU, SLMO2 / Fold change vs veh, SLMO2 / RFU, ABCC4 / Fold change vs veh, ABCC4 / RFU, LOC101060439 /// RAP1B / Fold change vs veh, LOC101060439 /// RAP1B / RFU, RFX7 / Fold change vs veh, RFX7 / RFU, GTPBP10 / Fold change vs veh, GTPBP10 / RFU, CNEP1R1 / Fold change vs veh, CNEP1R1 / RFU, BIVM-ERCC5 /// ERCC5 / Fold change vs veh, BIVM-ERCC5 /// ERCC5 / RFU, ILF3 / Fold change vs veh, ILF3 / RFU 11762660_at / Fold change /veh 11762660_at / RFU VCAN (11757783_s_at) / Fold change /veh VCAN (11757783_s_at) / RFU DDX43 (11728927_at) / Fold change /veh DDX43 (11728927_at) / RFU KRT8 (11758188_x_at) / Fold change /veh KRT8 (11758188_x_at) / RFU NKD1 (11759106_at) / Fold change /veh NKD1 (11759106_at) / RFU SRD5A1 (11742802_a_at) / Fold change /veh SRD5A1 (11742802_a_at) / RFU TPSAB1 /// TPSB2 (11721975_s_at) / Fold change /veh TPSAB1 /// TPSB2 (11721975_s_at) / RFU GSTM3 (11746129_a_at) / Fold change /veh GSTM3 (11746129_a_at) / RFU IL23R (11737362_x_at) / Fold change /veh IL23R (11737362_x_at) / RFU TMEM51 (11727254_a_at) / Fold change /veh TMEM51 (11727254_a_at) / RFU PIWIL2 (11732686_x_at) / Fold change /veh PIWIL2 (11732686_x_at) / RFU ORM1 (11744905_x_at) / Fold change /veh ORM1 (11744905_x_at) / RFU CCDC152 (11743942_at) / Fold change /veh CCDC152 (11743942_at) / RFU ECM1 (11717891_a_at) / Fold change /veh ECM1 (11717891_a_at) / RFU IL23R (11748794_a_at) / Fold change /veh IL23R (11748794_a_at) / RFU TNFAIP8L3 (11732012_x_at) / Fold change /veh TNFAIP8L3 (11732012_x_at) / RFU MBOAT4 (11741988_at) / Fold change /veh MBOAT4 (11741988_at) / RFU 11764193_at / Fold change /veh 11764193_at / RFU TMEM53 (11763286_at) / Fold change /veh TMEM53 (11763286_at) / RFU MAGEB2 (11727129_at) / Fold change /veh MAGEB2 (11727129_at) / RFU TMEM200A (11744735_a_at) / Fold change /veh TMEM200A (11744735_a_at) / RFU CCDC152 (11751479_a_at) / Fold change /veh CCDC152 (11751479_a_at) / RFU FAM211A (11726209_a_at) / Fold change /veh FAM211A (11726209_a_at) / RFU RGS16 (11746705_a_at) / Fold change /veh RGS16 (11746705_a_at) / RFU VCAN (11755009_s_at) / Fold change /veh VCAN (11755009_s_at) / RFU RHOB (11743442_s_at) / Fold change /veh RHOB (11743442_s_at) / RFU RGS16 (11720943_a_at) / Fold change /veh RGS16 (11720943_a_at) / RFU RGS16 (11720944_at) / Fold change /veh RGS16 (11720944_at) / RFU, VPS4B / Fold change vs veh, VPS4B / RFU, CREB1 / Fold change vs veh, CREB1 / RFU, DNAJC13 / Fold change vs veh, DNAJC13 / RFU, GNAQ / Fold change vs veh, GNAQ / RFU, CDK5R1 / Fold change vs veh, CDK5R1 / RFU, ZRANB3 / Fold change vs veh, ZRANB3 / RFU, CUL4A / Fold change vs veh, CUL4A / RFU, CCNY / Fold change vs veh, CCNY / RFU, UFL1 / Fold change vs veh, UFL1 / RFU, COG3 / Fold change vs veh, COG3 / RFU, DIAPH2 / Fold change vs veh, DIAPH2 / RFU, SKA2 / Fold change vs veh, SKA2 / RFU, AFF3 / Fold change vs veh, AFF3 / RFU, LMF1 / Fold change vs veh, LMF1 / RFU, IPO11 / Fold change vs veh, IPO11 / RFU, DFFB / Fold change vs veh, DFFB / RFU, FOXP1 / Fold change vs veh, FOXP1 / RFU, CARD8 / Fold change vs veh, CARD8 / RFU, STRN3 / Fold change vs veh, STRN3 / RFU, ADK / Fold change vs veh, ADK / RFU, RASSF2 / Fold change vs veh, RASSF2 / RFU, WIPF1 / Fold change vs veh, WIPF1 / RFU, LARP1B / Fold change vs veh, LARP1B / RFU, RASA1 / Fold change vs veh, RASA1 / RFU, RB1 / Fold change vs veh, RB1 / RFU, PPFIA1 / Fold change vs veh, PPFIA1 / RFU, MAT2A / Fold change vs veh, MAT2A / RFU, CCT5 / Fold change vs veh, CCT5 / RFU, WDR92 / Fold change vs veh, WDR92 / RFU, CUX1 / Fold change vs veh, CUX1 / RFU, TTC7A / Fold change vs veh, TTC7A / RFU, TMEM135 / Fold change vs veh, TMEM135 / RFU, DEPTOR / Fold change vs veh, DEPTOR / RFU, CPM / Fold change vs veh, CPM / RFU, DNAJB6 / Fold change vs veh, DNAJB6 / RFU, CACNA2D3 / Fold change vs veh, CACNA2D3 / RFU, DTX4 / Fold change vs veh, DTX4 / RFU, TFCP2 / Fold change vs veh, TFCP2 / RFU, GMCL1 /// GMCL1P1 / Fold change vs veh, GMCL1 /// GMCL1P1 / RFU, AEBP2 / Fold change vs veh, AEBP2 / RFU, SNHG1 /// SNORD22 /// SNORD25 /// SNORD26 /// SNORD27 /// SNORD28 /// SNORD29 /// SNORD31 / Fold change vs veh, SNHG1 /// SNORD22 /// SNORD25 /// SNORD26 /// SNORD27 /// SNORD28 /// SNORD29 /// SNORD31 / Fold change (Aza/veh), C12orf56 (ProbeSet 11735607_a_at) / Fold change (ACY-1035/veh), C12orf56 (ProbeSet 11735607_a_at) / Fold change (Aza/veh), FGFR1OP (ProbeSet 11751329_s_at) / Fold change (ACY-1035/veh), FGFR1OP (ProbeSet 11751329_s_at) / Fold change (Aza/veh), VPS36 (ProbeSet 11739960_a_at) / Fold change (ACY-1035/veh), VPS36 (ProbeSet 11739960_a_at) / RFU SYPL1 (11715823_x_at) / Fold change /veh SYPL1 (11715823_x_at) / RFU IGFBP7 (11715501_s_at) / Fold change /veh IGFBP7 (11715501_s_at) / RFU REEP3 (11722064_at) / Fold change /veh REEP3 (11722064_at) / RFU IGLL1 (11728026_x_at) / Fold change /veh IGLL1 (11728026_x_at): dose or concentration left out as unconfirmed
Conditions: ProbeSet 11729384_s_at; LIST D

SMILES: Nc1ccc(-c2cccs2)cc1NC(=O)c1ccc2c(c1)cc(C1CC1)n2CCN1CCOCC1 [ACY-1035]
- Fold change vs veh, CCNY: 0.87
